# Test results published in patent US12509449B2, “Anthelmintic compounds comprising a quinoline structure” (Intervet Inc., priority 2019, dated 2025).
# Experiments:
# Ascaridia galli L3 = assay: In vitro assay Ascaridia galli larval stage 3, minimum effective concentration; assay type: cell-based; conditions: 20 larvae per well, microscopic examination, read-out: MEC (minimum effective concentration) against Ascaridia galli L3
# Text: (§1) […] galli (intestinal roundworm of chicken), larval stage 3 (“L3”); and Oesophagostumum dentatum (nodular worm of swine), larval stages 3 and 4 (respectively “L3” and “L4”) where suspended in a nutrient medium and distributed to 96 well plates with 20 larvae per well. The wells were spiked DMSO solutions of the compounds with declining concentration.
# [1] = test system: Oesophagostumum dentatum L3; assay: In vitro assay Oesophagostumum dentatum larval stage 3, minimum effective concentration; assay type: cell-based; conditions: 20 larvae per well, microscopic examination; read-out: MEC (minimum effective concentration) against Oesophagostumum dentatum L3
# Text: as §1
# [2] = molecular target: T1, human Maxi K channel (BK channel), KCNMA1 (KCa1.1) and beta1 (KCNMB1) subunits (Homo sapiens, UniProt Q12791); assay: Agonistic activity at the human Maxi K channel (BK channel), membrane potential (FLIPR) in transfected CHO K1 cells; assay type: cell-based; conditions: membrane potential dye, 70 mM KCl
# T1 construct: expressed in transfected cells; host or cells: CHO K1
# T1 sequence (Q12791 1-1178 isoform Q12791-5): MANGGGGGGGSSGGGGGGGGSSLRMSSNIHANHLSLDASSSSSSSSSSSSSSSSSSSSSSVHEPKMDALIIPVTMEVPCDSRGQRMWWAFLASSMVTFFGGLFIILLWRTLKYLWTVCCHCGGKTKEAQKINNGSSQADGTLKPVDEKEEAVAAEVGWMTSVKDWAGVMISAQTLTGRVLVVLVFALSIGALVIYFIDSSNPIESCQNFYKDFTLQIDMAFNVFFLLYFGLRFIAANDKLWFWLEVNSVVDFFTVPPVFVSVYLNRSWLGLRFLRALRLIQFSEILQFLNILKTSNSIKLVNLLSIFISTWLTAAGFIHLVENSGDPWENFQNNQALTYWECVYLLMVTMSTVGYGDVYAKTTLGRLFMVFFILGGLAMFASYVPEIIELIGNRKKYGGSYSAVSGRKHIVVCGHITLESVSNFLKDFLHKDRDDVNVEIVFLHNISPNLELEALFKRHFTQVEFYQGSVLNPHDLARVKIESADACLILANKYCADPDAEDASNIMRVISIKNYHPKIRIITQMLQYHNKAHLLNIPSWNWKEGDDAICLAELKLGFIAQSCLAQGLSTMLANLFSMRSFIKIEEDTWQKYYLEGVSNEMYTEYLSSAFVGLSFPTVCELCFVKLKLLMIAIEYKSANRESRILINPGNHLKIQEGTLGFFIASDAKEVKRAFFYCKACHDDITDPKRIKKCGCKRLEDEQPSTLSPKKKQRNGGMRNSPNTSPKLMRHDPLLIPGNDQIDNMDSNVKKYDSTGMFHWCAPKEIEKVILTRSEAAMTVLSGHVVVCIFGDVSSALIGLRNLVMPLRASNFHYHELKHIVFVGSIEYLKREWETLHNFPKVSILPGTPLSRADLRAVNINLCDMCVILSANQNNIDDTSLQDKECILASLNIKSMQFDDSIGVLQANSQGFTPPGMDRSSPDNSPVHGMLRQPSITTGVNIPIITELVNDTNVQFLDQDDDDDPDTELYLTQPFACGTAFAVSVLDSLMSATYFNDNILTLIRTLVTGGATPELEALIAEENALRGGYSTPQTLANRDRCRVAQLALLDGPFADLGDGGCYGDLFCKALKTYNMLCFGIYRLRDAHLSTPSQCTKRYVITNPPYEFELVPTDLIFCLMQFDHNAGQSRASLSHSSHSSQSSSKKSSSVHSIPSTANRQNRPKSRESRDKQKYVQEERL
# T1 sequence (Q16558 whole entry partner): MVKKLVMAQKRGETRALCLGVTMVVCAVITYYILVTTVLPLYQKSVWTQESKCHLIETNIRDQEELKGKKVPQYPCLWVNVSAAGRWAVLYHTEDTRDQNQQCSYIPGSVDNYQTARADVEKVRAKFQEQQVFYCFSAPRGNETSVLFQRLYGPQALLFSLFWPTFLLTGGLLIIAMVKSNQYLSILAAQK
# Text: A CHO K1 cell line was stably transfected with the KCNMA1 (KCa1.1, U11058) and beta1 (KCNMB1) subunits of the human Maxi K channel (Ponte et al, Molecular Pharmacology 2012, 81(4), 567-577).
# The complete measurement takes 150 s.
# [3] = molecular target: Caenorhabditis elegans slo-1a (Caenorhabditis elegans, UniProt Q95V25); assay: Agonistic activity at C. elegans Slo-1a, membrane potential (FLIPR) in transfected CHO K1 cells; conditions: EC50 agonistic activity at C. elegans Slo-1a, membrane potential dye, 70 mM KCl
# Caenorhabditis elegans slo-1a, sequence (Q95V25 whole entry): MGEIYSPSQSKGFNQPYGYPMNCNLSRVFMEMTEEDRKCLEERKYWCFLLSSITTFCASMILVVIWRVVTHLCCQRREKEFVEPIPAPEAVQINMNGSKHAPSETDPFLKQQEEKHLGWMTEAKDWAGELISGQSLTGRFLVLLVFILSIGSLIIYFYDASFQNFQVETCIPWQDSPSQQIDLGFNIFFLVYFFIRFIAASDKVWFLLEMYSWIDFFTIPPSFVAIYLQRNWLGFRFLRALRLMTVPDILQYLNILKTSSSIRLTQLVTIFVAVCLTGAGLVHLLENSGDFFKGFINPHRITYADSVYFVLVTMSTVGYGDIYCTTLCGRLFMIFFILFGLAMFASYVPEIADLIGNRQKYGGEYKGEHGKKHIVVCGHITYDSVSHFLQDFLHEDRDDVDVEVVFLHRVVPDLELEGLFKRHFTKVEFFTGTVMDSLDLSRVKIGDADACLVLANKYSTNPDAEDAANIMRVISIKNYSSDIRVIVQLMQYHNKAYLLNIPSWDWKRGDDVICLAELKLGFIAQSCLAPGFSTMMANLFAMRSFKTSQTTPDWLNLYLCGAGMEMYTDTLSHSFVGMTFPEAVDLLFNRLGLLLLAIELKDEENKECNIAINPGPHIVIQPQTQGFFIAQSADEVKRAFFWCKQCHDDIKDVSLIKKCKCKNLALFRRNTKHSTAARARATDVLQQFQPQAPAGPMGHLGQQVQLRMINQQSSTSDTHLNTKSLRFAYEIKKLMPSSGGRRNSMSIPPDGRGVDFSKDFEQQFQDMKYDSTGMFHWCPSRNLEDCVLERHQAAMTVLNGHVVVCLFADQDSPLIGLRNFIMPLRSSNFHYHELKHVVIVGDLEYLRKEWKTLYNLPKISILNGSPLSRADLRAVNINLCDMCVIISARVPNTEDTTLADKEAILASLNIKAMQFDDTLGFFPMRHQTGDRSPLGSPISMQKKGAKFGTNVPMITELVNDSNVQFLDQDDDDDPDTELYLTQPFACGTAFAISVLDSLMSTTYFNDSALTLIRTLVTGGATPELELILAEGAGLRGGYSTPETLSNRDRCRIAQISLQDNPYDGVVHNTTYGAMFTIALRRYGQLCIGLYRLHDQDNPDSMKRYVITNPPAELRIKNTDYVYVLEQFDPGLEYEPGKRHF
# [4] = test system: Oesophagostumum dentatum L4; assay: In vitro assay Oesophagostumum dentatum larval stage 4, minimum effective concentration; assay type: cell-based; conditions: 20 larvae per well, microscopic examination; read-out: MEC (minimum effective concentration) against Oesophagostumum dentatum L4
# Text: as §1
Structure (SMILES),EC50 [2],EC50 [3],minimal effective concentration (Ascaridia galli L3),minimal effective concentration [1],minimal effective concentration [4]
CN(C)c1c(NC(=O)Cc2ccccc2)cnc2c(-c3cccc(Cl)c3Cl)cccc12 [Compound 1],> 30 µM,< 10 µM,≤ 50 µM,≤ 50 µM,–
CN(C)c1c(NC(=O)C2CCOc3ccccc32)cnc2c(-c3cccc(Cl)c3Cl)cccc12 (centres unmarked) [Compound 12],> 30 µM,< 1 µM,≤ 50 µM,–,–
COc1c(NC(=O)C2CCCc3ccccc32)cnc2c(-c3cccc(Cl)c3Cl)cccc12 (centres unmarked) [Compound 14],> 30 µM,< 1 µM,≤ 50 µM,–,–
COc1c(NC(=O)C2CCOc3ccccc32)cnc2c(-c3cccc(Cl)c3Cl)cccc12 (centres unmarked) [Compound 15],> 30 µM,< 1 µM,≤ 50 µM,–,–
COc1c(NC(=O)C2CCc3ccccc32)cnc2c(-c3cccc(Cl)c3Cl)cccc12 (centres unmarked) [Compound 16],> 30 µM,< 1 µM,≤ 50 µM,–,–
O=C(Nc1cnc2c(-c3cccc(Cl)c3Cl)cccc2c1N1CCCC1)C1CCc2ccccc21 (centres unmarked) [Compound 18],> 30 µM,–,≤ 50 µM,–,≤ 50 µM
CC(C(=O)Nc1cnc2c(-c3cccc(Cl)c3Cl)cccc2c1N1CCOCC1)c1ccccc1 (centres unmarked) [Compound 21],> 30 µM,< 10 µM,≤ 50 µM,–,–
CN(C)c1c(NC(=O)Cc2ccc(Cl)cc2)cnc2c(-c3cccc(Cl)c3Cl)cccc12 [Compound 25],> 30 µM,< 10 µM,–,≤ 50 µM,–
Cc1ccc(CC(=O)Nc2cnc3c(-c4cccc(Cl)c4Cl)cccc3c2N(C)C)cc1 [Compound 26],> 30 µM,< 10 µM,–,≤ 50 µM,–
CC(C)Oc1c(NC(=O)C2CCOc3ccccc32)cnc2c(-c3cccc(Cl)c3Cl)cccc12 (centres unmarked) [Compound 32],> 30 µM,–,≤ 50 µM,≤ 50 µM,–
Cc1cccc(CC(=O)Nc2cnc3c(-c4cccc(Cl)c4Cl)cccc3c2N(C)C)c1 [Compound 35],> 30 µM,< 10 µM,–,≤ 50 µM,–
O=C(Nc1cnc2c(-c3cccc(Cl)c3Cl)cccc2c1N1CCC(O)C1)C1CCOc2ccccc21 (centres unmarked) [Compound 37],10 to 30 µM,< 1 µM,≤ 50 µM,–,≤ 50 µM
CN(C)c1c(NC(=O)C2CCOc3ccccc32)cnc2c(-c3cc(F)cc(F)c3)cccc12 (centres unmarked) [Compound 38],> 30 µM,< 10 µM,≤ 50 µM,–,–
CN(C)c1c(NC(=O)C2CCOc3ccccc32)cnc2c(-c3cc(F)c(F)c(F)c3)cccc12 (centres unmarked) [Compound 39],> 30 µM,< 10 µM,≤ 50 µM,–,–
CN(C)c1cccc(CC(=O)Nc2cnc3c(-c4cccc(Cl)c4Cl)cccc3c2N(C)C)c1 [Compound 49],> 30 µM,< 10 µM,–,–,≤ 50 µM
"CCOc1c(NC(=O)C2CCc3ccccc32)cnc2c(-c3cccc(Cl)c3Cl)cccc12 (centres unmarked) [Compound 57, N-(8-(2,3-dichlorophenyl)-4-ethoxyquinolin-3-yl)-2,3-dihydro-1H-indene-1-carboxamide]",> 30 µM,< 1 µM,–,≤ 50 µM,–

Structure (SMILES),EC50 [2],EC50 [3],minimal effective concentration (Ascaridia galli L3),minimal effective concentration [1],minimal effective concentration [4]
CCOc1c(NC(=O)C2CCCc3ccccc32)cnc2c(-c3cc(Cl)cc(Cl)c3)cccc12 (centres unmarked) [Compound 75],> 30 µM,< 1 µM,≤ 50 µM,≤ 50 µM,–
CC(C)Oc1c(NC(=O)c2cccc3ccccc23)cnc2c(-c3cc(Cl)cc(Cl)c3)cccc12 [Compound 81],> 30 µM,–,–,≤ 50 µM,–
Nc1c(NC(=O)C2CCOc3ccccc32)cnc2c(-c3cccc(Cl)c3Cl)cccc12 (centres unmarked) [Compound 84],> 30 µM,< 10 µM,≤ 50 µM,–,–
O=C(Nc1cnc2c(-c3cccc(Cl)c3Cl)cccc2c1NCCO)C1CCOc2ccccc21 (centres unmarked) [Compound 90],> 30 µM,< 10 µM,≤ 50 µM,≤ 50 µM,–
CN(CCO)c1c(NC(=O)C2CCOc3ccccc32)cnc2c(-c3cccc(Cl)c3Cl)cccc12 (centres unmarked) [Compound 92],> 30 µM,< 10 µM,–,–,≤ 50 µM
CN(CCO)c1c(NC(=O)C2CCCc3ccccc32)cnc2c(-c3cccc(Cl)c3Cl)cccc12 (centres unmarked) [Compound 102],10 to 30 µM,< 1 µM,≤ 50 µM,–,–
O=C(Nc1cnc2c(-c3cccc(Cl)c3Cl)cccc2c1O)C1CCOc2ccccc21 (centres unmarked) [Compound 112],> 30 µM,–,–,≤ 50 µM,–
CC(C)Oc1c(NC(=O)C2CCCc3ccccc32)cnc2c(-c3cccc(Cl)c3Cl)c(F)ccc12 (centres unmarked) [Compound 122],> 30 µM,–,≤ 50 µM,≤ 50 µM,–
CC(C)Oc1c(NC(=O)C2CCc3ccccc32)cnc2c(-c3cccc(Cl)c3Cl)c(F)ccc12 (centres unmarked) [Compound 142],> 30 µM,–,≤ 50 µM,≤ 50 µM,–
COc1c(NC(=O)C2CCOc3ccccc32)cnc2c(-c3cccc(Cl)c3Cl)c(C)ccc12 (centres unmarked) [Compound 164],> 30 µM,< 10 µM,≤ 50 µM,–,–
Cc1c(NC(=O)C2CCOc3ccccc32)cnc2c(-c3cc(Cl)cc(Cl)c3)cccc12 (centres unmarked) [Compound 194],> 30 µM,< 10 µM,≤ 50 µM,–,–
CCc1c(NC(=O)C2CCOc3ccccc32)cnc2c(-c3cc(Cl)cc(Cl)c3)cccc12 (centres unmarked) [Compound 195],> 30 µM,< 1 µM,≤ 50 µM,–,–
CCc1c(NC(=O)c2cccc3ccccc23)cnc2c(-c3cc(Cl)cc(Cl)c3)cccc12 [Compound 199],> 30 µM,< 10 µM,≤ 50 µM,–,–
C=C(C)c1c(NC(=O)C2CCc3ccccc32)cnc2c(-c3cccc(Cl)c3Cl)cccc12 (centres unmarked) [Compound 201],> 30 µM,< 1 µM,≤ 50 µM,≤ 50 µM,–
C=C(C)c1c(NC(=O)C2CCCc3ccccc32)cnc2c(-c3cccc(Cl)c3Cl)cccc12 (centres unmarked) [Compound 202],> 30 µM,< 1 µM,–,≤ 50 µM,–

# Further lines, with some results ahead:
EC50 [2],EC50 [3],Structure (SMILES),minimal effective concentration (Ascaridia galli L3),minimal effective concentration [1],minimal effective concentration [4]
> 30 µM,< 1 µM,CN(C)c1c(NC(=O)C2CCOc3ccccc32)cnc2c(-c3cc(Cl)cc(Cl)c3)cccc12 (centres unmarked) [Compound 67],≤ 50 µM,–,–
> 30 µM,< 1 µM,COc1c(NC(=O)C2CCCc3ccccc32)cnc2c(-c3cc(Cl)cc(Cl)c3)cccc12 (centres unmarked) [Compound 69],≤ 50 µM,–,–
> 30 µM,< 1 µM,COc1c(NC(=O)C2CCCc3ccccc32)cnc2c(-c3cc(Cl)cc(Cl)c3)c(F)ccc12 (centres unmarked) [Compound 113],≤ 50 µM,–,–
> 30 µM,–,CCOc1c(NC(=O)C2CCCc3ccccc32)cnc2c(-c3cc(Cl)cc(Cl)c3)c(F)ccc12 (centres unmarked) [Compound 114],–,≤ 50 µM,–
> 30 µM,< 1 µM,CN(C)c1c(NC(=O)C2CCCc3ccccc32)cnc2c(-c3cc(Cl)cc(Cl)c3)c(F)ccc12 (centres unmarked) [Compound 115],≤ 50 µM,–,–
> 30 µM,< 1 µM,COc1c(NC(=O)C2CCOc3ccccc32)cnc2c(-c3cc(Cl)cc(Cl)c3)c(F)ccc12 (centres unmarked) [Compound 123],≤ 50 µM,–,–
> 30 µM,< 10 µM,O=C(Nc1cnc2c(-c3cc(Cl)cc(Cl)c3)c(F)ccc2c1N1CCOCC1)C1CCc2ccccc21 (centres unmarked) [Compound 136],≤ 50 µM,–,–
> 30 µM,< 1 µM,CCOc1c(NC(=O)[C@H]2CCCc3ccccc32)cnc2c(-c3cc(Cl)cc(Cl)c3)cccc12 [Compound 154],≤ 50 µM,–,–
> 30 µM,< 1 µM,COc1c(NC(=O)[C@H]2CCCc3ccccc32)cnc2c(-c3cc(Cl)cc(Cl)c3)cccc12 [Compound 155],≤ 50 µM,–,–
> 30 µM,< 1 µM,CN(C)c1c(NC(=O)[C@H]2CCc3ccccc32)cnc2c(-c3cc(Cl)cc(Cl)c3)c(Cl)ccc12 [Compound 180],≤ 50 µM,–,–
> 30 µM,< 1 µM,Cc1ccc2c(N(C)C)c(NC(=O)[C@H]3CCc4ccccc43)cnc2c1-c1cc(Cl)cc(Cl)c1 [Compound 182],≤ 50 µM,–,–
> 30 µM,< 1 µM,CCc1c(NC(=O)C2CCCc3ccccc32)cnc2c(-c3cc(Cl)cc(Cl)c3)cccc12 (centres unmarked) [Compound 191],–,≤ 50 µM,–
> 30 µM,< 10 µM,Cc1c(NC(=O)C2CCCc3ccccc32)cnc2c(-c3cc(Cl)cc(Cl)c3)cccc12 (centres unmarked) [Compound 192],–,–,≤ 50 µM
> 30 µM,< 1 µM,CCc1c(NC(=O)[C@H]2CCCc3ccccc32)cnc2c(-c3cc(Cl)cc(Cl)c3)cccc12 [Compound 197],≤ 50 µM,–,–
